Like-named read-outs stand apart in the source and are kept apart here.
Test system: Klebsiella pneumoniae (KPN) isolates
Assay: MIC of compounds alone and combined with antibacterials, broth microdilution (CLSI)
Assay type: cell-based
Outline: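 Log-phase isolates were inoculated at a final 5.10^5 CFU/mL in cation-adjusted Mueller-Hinton broth and incubated 16-20 h at 35° C in ambient air. MIC was the lowest concentration preventing visible growth; for combinations, the antibacterial MIC was read at each compound concentration.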

[1] = Klebsiella pneumoniae, strain KPN 6299, genotype TEM-1, SHV-11, OXA-163, read-out: MIC
[2] = Klebsiella pneumoniae, strain KPN 700603, genotype SHV-18, OXA-2, read-out: MIC
[3] = Klebsiella pneumoniae, strain KPN UFR77, genotype CMY-2, read-out: MIC
[4] = Klebsiella pneumoniae, strain KPN UFR79, genotype DHA-1, OXA-1, read-out: MIC
[5] = Klebsiella pneumoniae, strain KPN UFR80, genotype SHV-11, DHA-1, OXA-1, read-out: MIC

Measured: MIC

C=CC1=C(C(=O)O)N2C(=O)[C@@H](NC(=O)/C(=N\O)c3csc(N)n3)[C@H]2SC1 [CDR, Cefdinir]
256 µg/mL: [1] | [4]
1 µg/mL: [5]
> 256 µg/mL: Klebsiella pneumoniae, BAA1898, strain KPN BAA-1898, genotype TEM-1, SHV-11, SHV-12, KPC-2 | Klebsiella pneumoniae, strain KPN 110376, genotype TEM-1, SHV-1, CTX-M-15, OXA-1, OXA-48 | Klebsiella pneumoniae, strain KPN 131119, genotype TEM-1, SHV-11, CTX-M-15, OXA-1, OXA-48 | Klebsiella pneumoniae, strain KPN 140513, genotype TEM-1, SHV-11, CTX-M-15, KPC-3 | Klebsiella pneumoniae, strain KPN 160143, genotype TEM-1, SHV-1, CTX-M-15, KPC-2, OXA-1 | Klebsiella pneumoniae, strain KPN 190128, genotype TEM-1, SHV-32, CTX-M-15, OXA-1 | Klebsiella pneumoniae, strain KPN 190270, genotype TEM-1, SHV-76, CTX-M-15, OXA-1 | Klebsiella pneumoniae, strain KPN 190425, genotype TEM-1, SHV-1, CTX-M-15, OXA-1 | Klebsiella pneumoniae, strain KPN 190551, genotype TEM-1, SHV-1, CTX-M-15, OXA-1 | Klebsiella pneumoniae, strain KPN 200047, genotype TEM-1, SHV-32, CTX-M-15, OXA-1 | Klebsiella pneumoniae, strain KPN 200327, genotype TEM-1, SHV-1, CTX-M-15, OXA-1 | Klebsiella pneumoniae, strain KPN 260251, genotype TEM-1, SHV-11, SHV-12, CTX-M-15, KPC-2 | Klebsiella pneumoniae, strain KPN 260252, genotype TEM-1, SHV-11, KPC-3 | Klebsiella pneumoniae, strain KPN 260376, genotype SHV-1, SHV-49, OXA-1 | Klebsiella pneumoniae, strain KPN 270077, genotype TEM-1, SHV-1, CTX-M-15 | Klebsiella pneumoniae, strain KPN ARA, genotype TEM-1, SHV-11, CTX-M-15, OXA-1, OXA-48 | Klebsiella pneumoniae, strain KPN LIB, genotype SHV-11, OXA-48 | Klebsiella pneumoniae, strain KPN UFR22_O, genotype TEM-1, SHV-1, OXA-48 | Klebsiella pneumoniae, strain KPN UFR23, genotype TEM-1, SHV-1, OXA-48 | Klebsiella pneumoniae, strain KPN UFR24, genotype TEM-1, SHV-2, SHV-11, OXA-1, OXA-48, OXA-47 | Klebsiella pneumoniae, strain KPN UFR25, genotype TEM-1, SHV-11, CTX-M-15, OXA-162 | Klebsiella pneumoniae, strain KPN UFR27, genotype TEM-1, SHV-28, CTX-M-15, OXA-204 | Klebsiella pneumoniae, strain KPN UFR28, genotype TEM-1, SHV-1, CTX-M-15, OXA-1, OXA-232 | Klebsiella pneumoniae, strain KPN UFR65, genotype TEM-1, SHV-11, KPC-2 | Klebsiella pneumoniae, strain KPN UFR66, genotype TEM-1, SHV-11, CTX-M-15, KPC-2 | Klebsiella pneumoniae, strain KPN UFR67, genotype TEM-1, SHV-11, KPC-3 | Klebsiella pneumoniae, strain KPN UFR68, genotype TEM-1, SHV-11, CTX-M-15, KPC-3 | Klebsiella pneumoniae, strain KPN UFR76, genotype TEM-155, SHV-11, ACT-1, OXA-2 | Klebsiella pneumoniae, strain KPN UFR78, genotype TEM-1, SHV-1, CTX-M-15, CMY-2, OXA-1, OXA-48 | Klebsiella pneumoniae, strain KPN UFR81, genotype TEM-1, SHV-1, DHA-1, OXA-48 | Klebsiella pneumoniae, strain KPN UFR215, genotype SHV-27, CTX-M-15 | Klebsiella pneumoniae, strain KPN UFR216, genotype SHV-28, CTX-M-15 | Klebsiella pneumoniae, strain KPN UFR217, genotype TEM-1, SHV-1, CTX-M-15 | Klebsiella pneumoniae, strain KPN UFR219, genotype SHV-12, CTX-M-15 | Klebsiella pneumoniae, strain KPN UFR220, genotype TEM-1, SHV-12, DHA-1 | Klebsiella pneumoniae, strain KPN UFR222, genotype DHA-2 | Klebsiella pneumoniae, strain KPN UFR227O, genotype TEM-x, SHV-x, CTX-M-x
128 µg/mL: Klebsiella pneumoniae, strain KPN UFR221, genotype TEM-1, SHV-11, CTX-M-14, DHA-1, read-out: MIC
64 µg/mL: [3]
4 µg/mL: [2]

CO/N=C(\C(=O)N[C@@H]1C(=O)N2C(C(=O)O)=C(COC(N)=O)CS[C@H]12)c1ccco1 [FUR, Cefuroxime]
>256 µg/mL: strain KPN 110376, genotype TEM-1, SHV-1, CTX-M-15, OXA-1, OXA-48 | strain KPN 121206, genotype SHV-1, NDM-1 | strain KPN 131119, genotype TEM-1, SHV-11, CTX-M-15, OXA-1, OXA-48 | strain KPN 140513, genotype TEM-1, SHV-11, CTX-M-15, KPC-3 | strain KPN 160143, genotype TEM-1, SHV-1, CTX-M-15, KPC-2, OXA-1 | strain KPN 190128, genotype TEM-1, SHV-32, CTX-M-15, OXA-1 | strain KPN 190270, genotype TEM-1, SHV-76, CTX-M-15, OXA-1 | strain KPN 190425, genotype TEM-1, SHV-1, CTX-M-15, OXA-1 | strain KPN 190551, genotype TEM-1, SHV-1, CTX-M-15, OXA-1 | strain KPN 200047, genotype TEM-1, SHV-32, CTX-M-15, OXA-1 | strain KPN 200327, genotype TEM-1, SHV-1, CTX-M-15, OXA-1 | strain KPN 260251, genotype TEM-1, SHV-11, SHV-12, CTX-M-15, KPC-2 | strain KPN 260252, genotype TEM-1, SHV-11, KPC-3 | strain KPN 260376, genotype SHV-1, SHV-49, OXA-1 | strain KPN 270077, genotype TEM-1, SHV-1, CTX-M-15 | strain KPN ARA, genotype TEM-1, SHV-11, CTX-M-15, OXA-1, OXA-48 | strain KPN UFR25, genotype TEM-1, SHV-11, CTX-M-15, OXA-162 | strain KPN UFR27, genotype TEM-1, SHV-28, CTX-M-15, OXA-204 | strain KPN UFR28, genotype TEM-1, SHV-1, CTX-M-15, OXA-1, OXA-232 | strain KPN UFR42, genotype SHV-2, CTX-M-15 OXA-1, OXA-181, NDM-1 | strain KPN UFR65, genotype TEM-1, SHV-11, KPC-2 | strain KPN UFR66, genotype TEM-1, SHV-11, CTX-M-15, KPC-2 | strain KPN UFR67, genotype TEM-1, SHV-11, KPC-3 | strain KPN UFR68, genotype TEM-1, SHV-11, CTX-M-15, KPC-3 | strain KPN UFR76, genotype TEM-155, SHV-11, ACT-1, OXA-2 | strain KPN UFR78, genotype TEM-1, SHV-1, CTX-M-15, CMY-2, OXA-1, OXA-48 | strain KPN UFR79, genotype DHA-1, OXA-1 | strain KPN UFR81, genotype TEM-1, SHV-1, DHA-1, OXA-48 | strain KPN UFR215, genotype SHV-27, CTX-M-15 | strain KPN UFR216, genotype SHV-28, CTX-M-15 | strain KPN UFR217, genotype TEM-1, SHV-1, CTX-M-15 | strain KPN UFR219, genotype SHV-12, CTX-M-15 | strain KPN UFR220, genotype TEM-1, SHV-12, DHA-1 | strain KPN UFR221, genotype TEM-1, SHV-11, CTX-M-14, DHA-1 | strain KPN UFR222, genotype DHA-2 | strain KPN UFR227O, genotype TEM-x, SHV-x, CTX-M-x
>512 µg/mL: strain KPN 6299, genotype TEM-1, SHV-11, OXA-163 | strain KPN BAA-1898, genotype TEM-1, SHV-11, SHV-12, KPC-2
16 µg/mL: strain KPN LIB, genotype SHV-11, OXA-48
64 µg/mL: strain KPN UFR77, genotype CMY-2
32 µg/mL: strain KPN 700603, genotype SHV-18, OXA-2 | strain KPN UFR22_O, genotype TEM-1, SHV-1, OXA-48 | strain KPN UFR80, genotype SHV-11, DHA-1, OXA-1
8 µg/mL: strain KPN UFR23, genotype TEM-1, SHV-1, OXA-48
128 µg/mL: strain KPN UFR24, genotype TEM-1, SHV-2, SHV-11, OXA-1, OXA-48, OXA-47

COCC1=C(C(=O)O)N2C(=O)[C@@H](NC(=O)/C(=N\OC)c3csc(N)n3)[C@H]2SC1 [POD, Cefpodoxime]
0.5 µg/mL: Klebsiella pneumoniae, strain KPN UFR23, genotype TEM-1, SHV-1, OXA-48, read-out: MIC
1 µg/mL: Klebsiella pneumoniae, strain KPN LIB, genotype SHV-11, OXA-48, read-out: MIC | Klebsiella pneumoniae, strain KPN UFR22_O, genotype TEM-1, SHV-1, OXA-48, read-out: MIC
64 µg/mL: [1] | [3]
> 512 µg/mL: Klebsiella pneumoniae, BAA1898, strain KPN BAA-1898, genotype TEM-1, SHV-11, SHV-12, KPC-2, read-out: MIC
16 µg/mL: [2]
32 µg/mL: [4]
2 µg/mL: [5]

— patent US20200017495A1, “NOVEL HETEROCYCLIC COMPOUNDS AND THEIR USE IN PREVENTING OR TREATING BACTERIAL INFECTIONS” (priority 2017, published 2020)
